According to patent US5567605A, “Assay for D-allose using a NAD cofactor coupled D-allose dehydrogenase” (UOP, priority 1994, dated 1996):
Values joined by “and” are separate entries in the source; they are usually repeats but may differ in a detail not shown here. Identical values can stand only once. Blank lines part the entries; values can stand above or below the compound they belong to.

Tests used:
D-allose dehydrogenase [1] = test: Visual qualitative D-allose assay with electron accepting dyes; format: biochemical, Exophiala pisciphila; conditions: phenozine methosulfate and nitro blue tetrazolium, phosphate buffer pH 8.0
Source text: The assay can be coupled with electron accepting dyes to form a visual qualitative D-allose assay. […] Control samples without D-allose remain light pink. The nature of the electron-accepting dye is not critical to the success of this qualitative assay; electron-accepting dyes are well known in the biochemical arts and are merely exemplified by the class of tetrazolium salts, one of which is nitro blue tetrazolium.
The visual D-allose assay contained: […]

D-allose dehydrogenase [2] = test: NAD cofactor coupled D-allose dehydrogenase spectrophotometric enzyme assay (340 nm); format: biochemical, Exophiala pisciphila; conditions: for Activity (carbohydrate specificity): Sugar 100 mM as substrate, pH 9.0, 30° C., same dose of enzyme extract
Description: Soil and water samples were obtained from several sites and incubated with D-allose in a basic salts solution. The bacterial and fungal cultures were grown aerobically at 30° C. in a rotary incubator at 250 rpm. The basic salts growth medium contained: Na2 HPO4, 16 raM; KH2 PO4, 34 mM; (NH4)2 SO4, 15 mM; MgSO4, 1 mM; CaCl2, 0.1 mM; FeSO4, 0.01 mM and D-allose, 10 mM. The pH of the medium was 6.5. After growth in liquid, as determined by an increase in optical density, the cultures were streaked out on solid agar media containing D-allose as the growth substrate. […] After growth on D-allose, the individual cultures were harvested by centrifugation and the cells disrupted using a sonicator. Cell debris was removed by centrifugation and the crude cell extract was assayed for D-allose dehydrogenase enzymatic activity.
The enzyme assay was performed with a Beckman DU70 recording spectrophotometer using 340 nanometer wavelength light with 20 sec. interval readings for a 10 minute time period. Assays were run in 1 ml cuvettes at a constant temperature of 30° C. The instantaneous reaction rate was measured as the change in optical density per minute; activity was calculated at early reaction times when the changes in optical density were linear with time. The rate of enzyme reaction is directly proportional to the appearance of reduced NAD at 340 nm, because the enzyme oxidizes D-allose and transfers two protons from D-allose to NAD. The extinction coefficient of NADH2 (6.23 OD/1 mM solution) was used to convert the change in optical density per minute to micromoles of product. A standard curve of reaction rate versus substrate concentration was used to determine the D-allose concentration in unknown samples (FIG. 1). The Km of an enzyme is the concentration of substrate that gives one half maximal reaction rate and is thus a measure of the affinity of the enzyme for this substrate. The Vmax of an enzyme is the maximum rate of reaction that can be obtained where the substrate concentration is fully saturating the enzyme. […] An internal standard control using a 20 mM addition of D-allose to a duplicate unknown sample was used to determine if the sample interfered with D-allose measurement. If interference was detected, the unknown sample D-allose concentration was corrected for by the percent interference measured in the internal control sample.
The spectrophotometric enzyme reactions were performed in a 1 mL cuvette that contained the following. […]
The results of Table 1 were obtained at 30° C. using a solution containing 100 mM in D-allose.
In this series, a constant amount of enzyme extract was added to D-allose at various concentrations with the results summarized in Table 2.
In these experiments 1 mL of a 100 mM solution of various sugars were treated at pH 9.0 and 30° C. with the same dose of enzyme extract.

[3] = animals and humans; cited from earlier work

Compound: O=C[C@H](O)[C@H](O)[C@H](O)[C@H](O)CO [D-allose]
visual color change (D-allose dehydrogenase [1]): color change from light pink to dark blue
Km (D-allose dehydrogenase [2]; 30° C., pH 9.0 glycine-NaOH, NAD 5 mM, read-out: apparent Km for the enzyme with D-allose as substrate): 77 mM
Activity (D-allose dehydrogenase [2]; Buffer 0.2 molar, initial pH 9.0, final pH 8.5, 100 mM D-allose, 30° C.): 2.35 µmol/min/mL
Activity (D-allose dehydrogenase [2]; Buffer 0.5 molar, initial pH 9.0, final pH 8.9, 100 mM D-allose, 30° C.): 2.56 µmol/min/mL
Activity (D-allose dehydrogenase [2]; Buffer 1.0 molar, initial pH 9.0, final pH 9.0, 100 mM D-allose, 30° C.): 2.75 µmol/min/mL
Activity (D-allose dehydrogenase [2]; Buffer 2.0 molar, initial pH 9.0, final pH 9.0, 100 mM D-allose, 30° C.): 3.13 µmol/min/mL
Activity (D-allose dehydrogenase [2]; D-allose 1 mM, constant amount of enzyme extract): 0.13 μmole/min/ml of extract
% Inhibition (D-allose dehydrogenase [2]; D-allose 10 mM in 20% human serum): 16%
Activity (D-allose dehydrogenase [2]; D-allose 10 mM, constant amount of enzyme extract): 0.80 μmole/min/ml of extract
Activity (D-allose dehydrogenase [2]; D-allose 100 mM, constant amount of enzyme extract): 3.07 μmole/min/ml of extract
Activity (D-allose dehydrogenase [2]; Enzyme Extract 20 μL, 100 mM D-allose, 30° C.): 0.09 µmol/min
Activity (D-allose dehydrogenase [2]; Enzyme Extract 50 μL, 100 mM D-allose, 30° C.): 0.15 µmol/min
Activity (D-allose dehydrogenase [2]; Enzyme Extract 100 μL, 100 mM D-allose, 30° C.): 0.26 µmol/min
Activity (carbohydrate specificity) (D-allose dehydrogenase [2]): 2.93 µmol/min/mL
Activity (D-allose dehydrogenase [2]; pH of assay buffer 8.0, 100 mM D-allose, 30° C.): < 0.05 µmol/min/mL
Activity (D-allose dehydrogenase [2]; pH of assay buffer 8.5, 100 mM D-allose, 30° C.): 0.78 µmol/min/mL
Activity (D-allose dehydrogenase [2]; pH of assay buffer 9.0, 100 mM D-allose, 30° C.): 2.38 µmol/min/mL and 2.31 µmol/min/mL
Activity (D-allose dehydrogenase [2]; pH of assay buffer 9.5, 100 mM D-allose, 30° C.): 0.10 µmol/min/mL
Activity (D-allose dehydrogenase [2]; pH of assay buffer 10.0, 100 mM D-allose, 30° C.): < 0.05 µmol/min/mL
excretion [3]: easily excreted
metabolism [3]: not readily metabolized

Compound: O=C[C@@H](O)[C@H](O)[C@H](O)[C@H](O)CO [D-altrose, reference compound]
Activity (carbohydrate specificity) (D-allose dehydrogenase [2]): < 0.07 µmol/min/mL

Compound: O=C[C@H](O)[C@H](O)[C@H](O)CO [D-ribose, reference compound]
Activity (carbohydrate specificity) (D-allose dehydrogenase [2]): < 0.07 µmol/min/mL

Next, values leading:

Activity (carbohydrate specificity) (D-allose dehydrogenase [2]): < 0.07 µmol/min/mL
Compound: O=C[C@H](O)[C@@H](O)[C@H](O)[C@H](O)CO [D-glucose, reference compound]

Activity (carbohydrate specificity) (D-allose dehydrogenase [2]): < 0.07 µmol/min/mL
Compound: O=C[C@@H](O)[C@@H](O)[C@H](O)[C@H](O)CO [D-mannose, reference compound]
